Values of other authors in patent US20030220374A1, “Compositions and methods of treatment involving peroxisome proliferator-activated receptor-gamma agonists and cyclooxygenase-2 selective inhibitors” (Pharmacia Corporation, priority 2002, published 2003).

Tests used:
human carotid arteries = settings: in vivo
[1] = tested on: hepatocellular cancer cells
[2] = tested on: vascular smooth muscle cell
human lung cancer cells = settings: through the induction of apoptosis
PPARγ = biological target: T1, PPARγ (Homo sapiens, UniProt P37231)
T1 sequence (P37231 1-505): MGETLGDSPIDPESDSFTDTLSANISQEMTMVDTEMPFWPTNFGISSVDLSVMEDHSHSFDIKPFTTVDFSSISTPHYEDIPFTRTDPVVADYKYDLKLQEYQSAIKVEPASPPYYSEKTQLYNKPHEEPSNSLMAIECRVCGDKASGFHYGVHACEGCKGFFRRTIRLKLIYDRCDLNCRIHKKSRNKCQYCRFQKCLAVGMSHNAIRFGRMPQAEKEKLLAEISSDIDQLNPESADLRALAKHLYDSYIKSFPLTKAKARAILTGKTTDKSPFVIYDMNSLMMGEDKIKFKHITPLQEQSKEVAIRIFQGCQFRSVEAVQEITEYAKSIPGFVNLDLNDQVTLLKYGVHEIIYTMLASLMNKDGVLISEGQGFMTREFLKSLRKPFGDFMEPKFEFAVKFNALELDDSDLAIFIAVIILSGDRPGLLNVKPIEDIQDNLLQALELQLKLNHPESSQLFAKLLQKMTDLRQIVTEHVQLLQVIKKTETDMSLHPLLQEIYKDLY

[3] = tested on: fibroblast growth factor-induced corneal angiogenesis; settings: rats

## Cc1c(C)c2c(c(C)c1O)CCC(C)(COc1ccc(CC3SC(=O)NC3=O)cc1)O2 (single isomer, unassigned; (+)) [Troglitazone, (+)-5-[[4-[(3,4-dihydro-6-hydroxy-2,5,7,8-tetramethyl-2H-1-benzopyran-2-yl)methoxy]phenyl]methyl]-2,4-thiazolidinedione]
Human carotid arteries
  hyperplasia of human carotid arteries: decreases
[1]
  growth inhibition of hepatocellular cancer cells: marked growth inhibition
[2]
  vascular smooth muscle cell growth: inhibits
Human lung cancer cells
  growth of human lung cancer cells: inhibited the growth

## CCCCC/C=C\C=C1\C(=O)C=C[C@@H]1C/C=C\CCCC(=O)O [15-deoxy-Δ^12,14-prostaglandin J2, 11-oxo-prosta-5Z,9,12E,14Z-tetren-1-oic acid]
[1]
  growth inhibition of hepatocellular cancer cells: marked growth inhibition

## COc1ccc2nc(COc3ccc(CC4SC(=O)NC4=O)cc3)n(C)c2c1 (stereo not shown) [CS-011, CI-1037]
PPARγ
  EC50: 160 nM

## Cc1ccc(-c2cc(C(F)(F)F)nn2-c2ccc(S(N)(=O)=O)cc2)cc1 [Celecoxib, 4-[5-(4-methylphenyl)-3-(trifluoromethyl)-1H-pyrazol-1-yl]benzenesulfonamide]
[3]
  inhibition of fibroblast growth factor-induced corneal angiogenesis: potent inhibition
